Laboratory results reported in US12667686B2, “Nitric oxide generating systems” (NOTA Laboratories, LLC, priority 2019, dated 2026).

Assay: GSNO stability as a function of pH
Format: physicochemical
Conditions: alkaline conditions
Protocol: The stability of the formulations was tested via UV/Vis analysis and/or via the electrochemical NOA.

In the case of `N[C@@H](CCC(=O)N[C@@H](CSN=O)C(=O)NCC(=O)O)C(=O)O` [GSNO, S-nitrosoglutathione], the “pH above which GSNO instability and hence NO generation begins to increase” value is reported as “above 8.5”.
